Entries after “also recorded” stand apart in the source; their conditions may differ. Where two headings read alike, the source gives them in different places.
How the values were obtained:
[1] = tested on: FLAG PDE IVAmet330
Description: (§1) CHO-K1 cells were lysed by sonication for 10 secs at a power setting of 50% (BRAUNSONIC Model 2000) in an ice cold solution containing 50 mM Tris, pH 7.5; 1 mM EDTA; and 200 μM mercaptoethanol. The soluble and particulate fractions of the cell were obtained by centrifuging the sonicate for 90 min at 100,000×g at 4° C. PDE activity was measured in a solution containing 50 mM Tris, pH 7.5; 10 mM MgCl2 ; 1 mM EDTA; and 100 nM (or indicated) 3H-cAMP (100 ml final volume) in the presence of varying concentrations of inhibitor. The reaction mixture containing enzyme was incubated for 10 min at 30° C. in 96-well View Plates (PACKARD), and terminated by the addition of 50 μl Phosphodiesterase Scintillation Proximity Assay (SPA) Beads ([sequence]) containing 18 mM ZnSO4. The amount of 3H-cAMP hydrolysis was determined by counting the plates in a WALLAC 1450 μBeta LSC counter.
(§2) CHO-K1 cells stably expressing epitope FLAG PDE IV constructs were lysed by sonication for 10 secs at a power setting of 50% (Braunsonic Model 2000) in an ice cold solution containing 50 mM Tris, pH 7.5; 1 mM EDTA; protease inhibitor cocktail (Boehringer, Montreal, QUE). The soluble and particulate fractions of the cell were obtained by centrifuging the sonicate for 90 min at 100,000×g at 40° C.

[2] = tested on: patients; conditions: clinic; cited from earlier work
[3] = tested on: full-length PDE Iva / HPDE IV; conditions: cited from earlier work
[4] = tested on: constitutive phosphodiesterase of control cells (VH2); assay: Constitutive phosphodiesterase activity in control cells (VH2); format: biochemical; conditions: control cells (VH2) in selection media
Description: as §1

[5] = tested on: PDE IVh6.1; conditions: PDE IVh6.1 in S. cerevisiae or COS-1 cells; cited from earlier work
[6] = tested on: high-affinity rolipram binding site, rat forebrain membranes; conditions: cited from earlier work
[7] = target: T1, FLAG PDE IVAmet330 (Homo sapiens, UniProt P27815, M723I); format: binding; design: made in house; conditions: 0.2 to 100 nM [^3 H](R)-rolipram
Target sequence in this assay (P27815 332-886 M723I): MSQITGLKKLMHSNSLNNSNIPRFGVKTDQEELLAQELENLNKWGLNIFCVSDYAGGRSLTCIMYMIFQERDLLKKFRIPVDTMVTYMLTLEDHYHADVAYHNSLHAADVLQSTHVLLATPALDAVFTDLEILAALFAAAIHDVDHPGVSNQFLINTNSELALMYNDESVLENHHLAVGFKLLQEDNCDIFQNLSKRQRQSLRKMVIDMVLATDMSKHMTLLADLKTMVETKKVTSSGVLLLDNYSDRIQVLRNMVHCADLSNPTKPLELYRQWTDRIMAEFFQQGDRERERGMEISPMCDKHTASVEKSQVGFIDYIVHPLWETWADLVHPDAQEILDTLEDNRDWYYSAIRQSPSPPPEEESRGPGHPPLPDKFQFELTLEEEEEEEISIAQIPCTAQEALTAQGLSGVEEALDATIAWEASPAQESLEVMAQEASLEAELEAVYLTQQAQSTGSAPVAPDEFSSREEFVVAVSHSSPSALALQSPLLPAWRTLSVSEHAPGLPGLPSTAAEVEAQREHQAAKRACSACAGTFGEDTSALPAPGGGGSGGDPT
Description: CHO-K1 cells stably expressing epitope FLAG PDE IV constructs were lysed by sonication for 10 secs at a power setting of 50% (Braunsonic Model 2000) in an ice cold solution containing 50 mM Tris, pH 7.5; 1 mM EDTA; protease inhibitor cocktail (Boehringer, Montreal, QUE). The soluble and particulate fractions of the cell were obtained by centrifuging the sonicate for 90 min at 100,000×g at 40° C. […] The affinity matrix was washed with column buffer until all unbound protein was eluted from the column as determined with a UV-2 flow cell. Bound material was eluted with column buffer containing 0.5 mg/ml. FLAG peptide at a flow rate of 2 ml/min.
(§3) The filters were quickly washed with an ice-cold solution of 50 mM Tris; pH 7.5. […] Non-specific binding amounted to less than 5% of the total measured binding activity.

[8] = tested on: cAMP PDE; conditions: membraneous and cytosolic fractions, rat brain; cited from earlier work
[9] = tested on: catalytic portion of PDE IV; conditions: UCR1 and UCR2 deleted; cited from earlier work
[10] = tested on: CHO-K1 cells stably expressing rhPDE IVa; assay: cells; format: cell-based
Description: Levels of cAMP were measured in CHO-K1 cells stably expressing PDE IVa enzyme as outlined in Materials and Methods.
CHO-K1 cells were plated at a density of 10^6 cells/175 cm^2 containing complete media with 500 μg/ml hygromycin. The flasks were maintained in an incubator at 37° C. with 5.0% CO2 for 72 hr. The media was changed and the cells were allowed to grow overnight. The cells were washed and dissociated from the plate with PBS containing 0.5 mM EDTA. Cellular cAMP content was measured by centrifuging the cell suspension at 150 g×10 min and resuspending the cells in a Hanks buffered salt solution at a density of 0.2×10^6 cells/ml. The cells were preincubated at room temperature for 15 min and then incubated with 10 μM prostaglandin I2 (PGI2) and the indicated compound for an additional 10 min. Basal cAMP levels were determined by incubating the cells in 0.1% DMSO. The incubations were terminated by the addition of HCl (0.1N final) and the cells measured for cAMP.
Determinations of whole-cell cAMP content were performed by incubating 100 μl reconstituted rabbit anti-succinyl cAMP serum with 100 μl of the whole-cell reaction or known cAMP standard and 30 pmol of 125I-cAMP TME in a […]™ well (300 μl final volume) at room temperature for 18 h. Total cpm (Bo) was determined in the absence of sample or cAMP standard. The reaction mixture was then aspirated out of the well, and individual wells were counted in a BECKMAN LS 6000SC with the window open from 10-999 for 1 min. The data were expressed as %B/Bo=[(standard or sample cpm--non-specific cpm)/(Bo cpm-non-specific cpm)]×100. Non-specific cpm were determined by incubating only the 125I-cAMP TME with assay buffer (50 mM acetate; pH 5.8) in the ScintiStrip™ well. All determinations were performed in triplicate.

[11] = target: T1, FLAG PDE IVAmet330; conditions: KCl and/or HSA
Target sequence in this assay (P27815 332-886 M723I limits assumed): as the sequence (P27815 332-886 M723I) above
Description: as §1, §2

[12] = target: T2, FLAG PDE IVA (Homo sapiens, UniProt P27815, M723I); conditions: 150 mM KCl with 3 mg/ml HSA vs HSA alone
Description: PDE activity was measured in a solution containing 50 mM Tris, pH 7.5; 10 mM MgCl2; 1 mM EDTA; and 100 nM (or indicated) 3H-cAMP ([…] final volume) in the presence of varying concentrations of inhibitor. The reaction mixture containing enzyme was incubated for 10 min at 30° C. in 96-well View Plates (PACKARD), and terminated by the addition of 50 μl Phosphodiesterase Scintillation Proximity Assay (SPA) Beads ([…]) containing 18 mM ZnSO4. The amount of 3H-cAMP hydrolysis was determined by counting the plates in a WALLAC 1450 μBeta LSC counter.

[13] = tested on: catalytic portion of PDE IV; conditions: UCR1 and UCR2 deleted; cited from earlier work; remark: listed apart in the source
[14] = tested on: PKA in CHO-K1 cells stably expressing PDE IVa; assay: Whole-cell cAMP dependent protein kinase (PKA) activity ratio; format: cell-based; conditions: with 1 μM PGI2, read-out: apparent EC50 to activate PKA
Description: PKA activity ratios were determined as the amount of ^32 P transferred to histone F2B in the presence and absence of cAMP as described in Materials and Methods. Data points represent the fractional PKA activation by incubating cells with the indicated concentrations of inhibitor and […]. Experiments were performed in triplicate. n=3 experiments±SD.
CHO-K1 cells were grown and resuspended as described above except that the Hank's buffer was replaced by a solution containing 0.25M sucrose; 10 mM Tris, pH 7.5; and 0.5 mM EDTA. The cells were preincubated and incubated with 1 μM PGI2 and the indicated compounds at room temperature as described above. The incubations were terminated by the addition of 0.05% Triton X-100 (final) and incubating the cells for 5 min on ice. […] This mixture (final volume 220 μl) was incubated in a waterbath for 30 min at 35° C. and terminated by adding 5 ml of ice cold 5% TCA. The precipatated protein was applied to a Whatman GF/B filter under vacuum and the filter was subsequently washed with 3×5 ml ice cold TCA solution. The amount of -32P incorporation was measured by placing the filters in Aquasol and counting in a BECKMAN LSC 5000. Basal cAMP independent protein kinase activity was determined by the inclusion of 1 μM Protein Kinase A Peptide Inhibitor (19) in the reaction mixture. Maximal cAMP protein kinase activity was determined in the presence of 10 μM cAMP. All determinations were performed in triplicate and activity ratios were calculated as the [(kinase activity in the presence of PDE inhibitor minus cAMP independent kinase activity)/(maximal cAMP kinase activity minus cAMP independent kinase activity)]×100.

[15] = target: T3, recombinant full-length human PDE IVa (rhPDEIVa) (Homo sapiens, UniProt P27815, M723I); assay: Phosphodiesterase Scintillation Proximity Assay, inhibition of soluble rhPDE IVa (100,000×g supernatant of transfected CHO-K1 cells); format: biochemical
T3 construct: a cDNA insert encoding for a full-length human PDE IVa enzyme; made in house; host or cells: CHO-K1 cells, stably transfected (also expressing the prostanoid IP receptor); 100,000xg supernatant of the sonicate
Description: Inhibition of soluble rhPDEIVa by specific inhibitors was examined at 100 nM substrate. Enzyme activity was determined as described in Materials and Methods using the Amersham SPA beads that specifically bind 5'AMP.
Inhibition of soluble rhPDEIVa by specific inhibitors was examined in the presence of 5 mM to 100 mM MgCl2. Enzyme activity was determined as described in Materials and Methods using the Amersham SPA beads that specifically bind 5'AMP in the presence of […] cAMP substrate.

[16] = tested on: human neutrophils; assay: Whole-cell cAMP elevation in human neutrophils; format: cell-based; conditions: vs RS 14203 and (R)-rolipram; data not presented
[17] = tested on: HL-60 cells; assay: Whole-cell cAMP elevation in HL-60 cells; format: cell-based; conditions: vs RS 14203 and (R)-rolipram; data not presented
[18] = tested on: U937 cells; assay: Whole-cell cAMP elevation in U937 cells; format: cell-based, human; conditions: vs RS 14203 and (R)-rolipram; data not presented
[19] = tested on: eosinophils from guinea pigs; assay: Whole-cell cAMP elevation in guinea pig eosinophils; format: cell-based; conditions: vs RS 14203 and (R)-rolipram; data not presented
[20] = tested on: PDE IVA enzyme and various deletion mutants; conditions: cited from earlier work
[21] = tested on: HSA; assay: [3H](R)-rolipram binding to HSA; design: species or system human; conditions: presence or absence of 150 mM KCl
Description: as §3

[22] = target: rhPDE IVa (Homo sapiens, UniProt P27815, M723I)
Description: Shown is the saturable binding to the soluble rhPDE IVa enzyme with increasing concentrations of ligand from 0.2 to 100 nM (panal A).
(§4) The filters were quickly washed with an ice-cold solution of 50 mM Tris; pH 7.5.

[23] = target: T2, FLAG PDE IVA
Description: Each point represents the mean of 3 separate experiments performed in duplicate±SEM. […] Each point represents the average of 3 separate experiments.
CHO-K1 cells stably expressing epitope FLAG PDE IV constructs were lysed by sonication for 10 secs at a power setting of 50% (Braunsonic Model 2000) in an ice cold solution containing 50 mM Tris, pH 7.5; 1 mM EDTA; protease inhibitor cocktail (Boehringer, Montreal, QUE). The soluble and particulate fractions of the cell were obtained by centrifuging the sonicate for 90 min at 100,000×g at 40° C. Twenty-five ml. […] The affinity matrix was washed with column buffer until all unbound protein was eluted from the column as determined with a UV-2 flow cell. Bound material was eluted with column buffer containing 0.5 mg/ml. FLAG peptide at a flow rate of 2 ml/min.
as §4

T3 sequence (P27815 whole entry M723I): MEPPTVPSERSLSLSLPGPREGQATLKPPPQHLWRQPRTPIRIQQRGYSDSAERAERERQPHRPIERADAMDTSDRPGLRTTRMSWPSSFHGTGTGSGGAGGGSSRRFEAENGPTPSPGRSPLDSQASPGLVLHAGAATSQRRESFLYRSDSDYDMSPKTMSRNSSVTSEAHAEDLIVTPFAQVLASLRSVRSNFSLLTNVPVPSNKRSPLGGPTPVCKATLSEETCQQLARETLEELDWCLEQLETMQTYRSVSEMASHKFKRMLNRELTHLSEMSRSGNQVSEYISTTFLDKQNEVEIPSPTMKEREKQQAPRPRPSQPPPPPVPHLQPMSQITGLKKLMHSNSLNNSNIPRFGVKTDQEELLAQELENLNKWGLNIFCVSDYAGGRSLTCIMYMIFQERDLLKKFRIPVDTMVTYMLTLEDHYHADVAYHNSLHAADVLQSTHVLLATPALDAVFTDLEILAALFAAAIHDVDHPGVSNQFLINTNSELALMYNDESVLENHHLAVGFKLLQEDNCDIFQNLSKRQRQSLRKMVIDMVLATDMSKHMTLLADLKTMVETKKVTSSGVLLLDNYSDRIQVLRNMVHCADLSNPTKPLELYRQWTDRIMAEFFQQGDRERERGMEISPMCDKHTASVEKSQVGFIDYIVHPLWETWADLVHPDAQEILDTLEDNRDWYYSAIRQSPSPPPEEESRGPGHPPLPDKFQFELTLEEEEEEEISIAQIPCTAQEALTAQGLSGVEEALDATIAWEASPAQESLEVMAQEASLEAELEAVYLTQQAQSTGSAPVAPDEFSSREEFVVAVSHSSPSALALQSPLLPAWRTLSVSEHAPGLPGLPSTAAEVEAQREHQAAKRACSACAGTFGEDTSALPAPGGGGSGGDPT
T2 sequence (P27815 whole entry M723I): as above
Sequence of rhPDE IVa (P27815 whole entry M723I): as above

## COc1ccc(C2CNC(=O)C2)cc1OC1CCCC1 (racemic) [rolipram]
[1]; truncated, catalytically active enzyme
  sensitivity of truncated PDE IVa to inhibition: low sensitivity to inhibition by rolipram
[2]
  nausea in patients: profound episodes of nausea in patients
  therapeutic window: extremely narrow therapeutic window
[3]; rolipram (racemic)
  inhibitory kinetics with respect to full-length PDE Iva: Mixed inhibitory kinetics
[4]
  rolipram-sensitivity of constitutive phosphodiesterase activity: did not exhibit any rolipram-sensitivity
[5]
  inhibitory kinetics with respect to substrate: simple competitive inhibitor
[6]
  difference between measured Kd (binding) and IC50 (enzymatic): > 1000 fold
[7]
  saturable high-affinity binding to truncated enzyme: fails to bind rolipram with high-affinity
[8]
  concentrations inhibiting cAMP PDE activity: micromolar concentrations
[9]
  saturable high-affinity rolipram binding: no detectable saturable high-affinity rolipram binding

## COc1ccc([C@@H]2CNC(=O)C2)cc1OC1CCCC1 [(R)-rolipram]
[10]; CHO-K1, with 10 μM PGI2 (b116 prints 10 FM), read-out: EC50 for elevating cellular cAMP
  EC50: 486 nM
[11]
  effect of assay conditions on sensitivity of FLAG PDE IVAmet330 to (R)-rolipram: unaffected
[3]
  Hill co-effecient for inhibition of HPDE IV catalytic activity: 0.43
[12]
  additional increase in enzyme sensitivity to (R)-rolipram: 3 fold
[13]
  concentration required for inhibition of catalytic portion: at least a micromolar concentration
[14]; CHO-K1
  EC50: 168 nM
[15]
  effect of assay solution osmolality on rolipram sensitivity of the enzyme: no effect upon the rolipram sensitivity of the enzyme
  inhibition of cAMP hydrolytic activity in the stable clones: completely inhibitable

## COc1ccc([C@H](Cc2ccncc2)c2ccccc2)cc1OC1CCCC1 [CDP 840]
[10]; with PGI2
  relative potency / response in elevating whole-cell cAMP: least potent of the compounds tested, and a maximal "plateau" response was not obtained
[1]; truncated vs full-length enzyme
  discrimination between high- and low-affinity states of the enzyme: do not discriminate between the two affinity states of the enzyme
[16]
  relative potency at elevating whole-cell cAMP: consistently less potent than RS 14203 and (R)-rolipram
[17]
  relative potency at elevating whole-cell cAMP: consistently less potent than RS 14203 and (R)-rolipram
[18]
  relative potency at elevating whole-cell cAMP: consistently less potent than RS 14203 and (R)-rolipram
[19]
  relative potency at elevating whole-cell cAMP: consistently less potent than RS 14203 and (R)-rolipram
[14]
  EC50: 319 nM
[15]
  effect of increased salt / ionic strength on inhibitory potency (IC50): not substantially affected; also recorded: not appreciably affected; also recorded: not affected by an increase of ionic strength; also recorded: not affected by the increases in assay buffer ionic strength
  relative potency against recombinant full-length PDE IVa enzyme: as potent as RS 14203 and more potent than (R)-rolipram
[15]; read-out: IC50 for inhibition of soluble PDE IVa activity
  IC50: 9 nM

## COc1ccc(C(=O)Nc2c(Cl)cncc2Cl)cc1OC1CCCC1 [RP 73401]
[20]
  class of binding sites: single class of high-affinity binding sites

## COc1ccc([C@@H]2CNC(=O)C2)cc1OC1CCCC1 [[^3 H](R)-rolipram]
[21]
  specific binding to HSA: No specific binding
[22]; 150 mM KCl
  Bmax: 0.47 pmol/20 μg prot.
[22]; 300 mM KCl
  Hill coefficient of binding: 2
[22]; absence of added KCl
  Bmax: 0.16 pmol/20 μg prot.
[7]
  saturable high-affinity binding to truncated enzyme: did not exhibit any saturable binding; also recorded: does not display any saturable high-affinity [^3 H](R)-rolipram binding
[23]; 0 mM KCl
  Stochiometry: 0.02 (0.0) fmol [^3 H](R)-Rolipram/fmol P
[23]; 0 mM KCl + 3 mg/ml HSA
  Bmax: 150 (47) fmol [^3 H](R)-rolipram
  Stochiometry: 0.10 (0.03) fmol [^3 H](R)-Rolipram/fmol P
[23]; 3 mg/ml HSA
  Bmax: 150±47 fmol/1.6 pmol enzyme
  increase in Bmax: 5 fold
[23]; 150 mM KCl
  Bmax: 63 (16) fmol [^3 H](R)-rolipram
  Stochiometry: 0.04 (0.01) fmol [^3 H](R)-Rolipram/fmol P
[23]; 150 mM KCl (text)
  Bmax: 63±16 fmol/1.6 pmol enzyme
[23]; 150 mM KCl + 3 mg/ml HSA
  Bmax: 240 (37) fmol [^3 H](R)-rolipram
  Stochiometry: 0.15 (0.03) fmol [^3 H](R)-Rolipram/fmol P
[23]; 150 mM KCl + 3 mg/ml HSA (text)
  Bmax: 240 fmol/1.6 pmol purified enzyme
